Measurements from patent publication US5861404A, “2,9-disubstituted purin-6-ones” (Bayer Aktiengesellschaft, priority 1995, dated 1999).

Legend:
Format in all cases: biochemical
[1] = test system: Ca-calmodulin-stimulatable PDE I; experiment: Inhibition of the phosphodiesterases in vitro: PDE I; settings: PDE I from porcine aorta or porcine brain; nucleotide 10^-6 mol/l; 1 μM CaCl2, 0.1 μM calmodulin; pH 7.5, 30 minutes
Description: (§1) The cGMP-stimulatable PDE II, the cGMP-inhibitable PDE III and the cAMP-specific PDE IV were isolated from either porcine or bovine myocardium. The Ca-calmodulin-stimulatable PDE I was isolated from the porcine aorta or porcine brain. The cGMP-specific PDE V was obtained from the porcine small intestine, porcine aorta and/or human blood platelets. Purification was carried out by anion exchange chromatography over MonoQ Phaacia essentially by the method of M. Hoey and Miles D. Houslay, Biochemical Pharmacology, Vol. 40, 193-202 (1990).
(§2) The enzyme activity is determined in a test batch of 100 μl in 20 mM Tris/HCl buffer of pH 7.5 which comprises 5 mM MgCl2, 0.1 mg/ml of bovine serum albumin and either 800 Bq of ^3 HcAMP or ^3 HcGMP. The final concentration of the corresponding nucleotides is 10^-6 mol/l. The reaction is started by addition of the enzyme and the amount of enzyme is chosen such that about 50% of the substrate is reacted during the incubation time of 30 minutes. To test the cGMP-stimulatable PDE II, ^3 HcAMP is used as the substrate and 10^-6 mol/l of non-labelled cGMP is added to the batch. To test the Ca-calmodulin-dependent PDE I, 1 μM CaCl2 and 0.1 μM calmodulin are also added to the reaction batch. The reaction is stopped by addition of 100 μl of acetonitrile which comprises 1 mnM cAMP and 1 mM AMP. 100 μl of the reaction batch are separated on the HPLC column and the cleavage products are determined quantitatively "online" with a flow-through scintillation counter. The substance concentration at which the rate of reaction is reduced by 50% is measured.

[2] = test system: cGMP-stimulatable PDE II; experiment: Inhibition of the phosphodiesterases in vitro: PDE II; settings: PDE II from porcine or bovine myocardium; 3H-cAMP substrate 10^-6 mol/l with 10^-6 mol/l cGMP; pH 7.5, 30 minutes
Description: as §1, §2

[3] = test system: cGMP-specific PDE V; experiment: Inhibition of the phosphodiesterases in vitro: PDE V; settings: PDE V from porcine small intestine, porcine aorta and/or human blood platelets; nucleotide 10^-6 mol/l; pH 7.5, 30 minutes
Description: as §1, §2

IC50 [1] [µM] | IC50 [2] [µM] | IC50 [3] [µM] | SMILES
10 | 3 | 50 | CCCCCCC(C(C)O)n1cnc2c(=O)[nH]c(-c3ccc(Cl)cc3)nc21 (centres unmarked) [Example 5]
4 | 0.6 | 0.3 | CC(CCCc1ccccc1)n1cnc2c(=O)[nH]c(C3CC3)nc21 (centres unmarked) [Example 14]
1 | 0.4 | 1 | CC(CCCc1ccccc1)n1cnc2c(=O)[nH]c(-c3ccc(-c4ccccc4)cc3)nc21 (centres unmarked) [Example 20]

More lines, now with the values behind:

SMILES | IC50 [1] [µM] | IC50 [2] [µM] | IC50 [3] [µM]
CC(O)C(CCCc1ccccc1)n1cnc2c(=O)[nH]c(C3CCCCC3)nc21 (centres unmarked) [Example 8, 9-(2-hydroxy-6phenyl-3-hexyl)-2-cyclohexyl-purin-6one] | 40 | 2 | –
CC(CCCc1ccccc1)n1cnc2c(=O)[nH]c(-c3ccc4c(c3)OCO4)nc21 (centres unmarked) [Example 25] | 3 | 0.1 | 10
